Measurements published in ChEMBL document CHEMBL5620419, “Discovery of new Lenalidomide derivatives as potent and selective GSPT1 degraders” (Eur J Med Chem, 2023).

Target: Protein cereblon/Eukaryotic peptide chain release factor GTP-binding subunit ERF3A (Homo sapiens, UniProt P15170+Q96SW2)
Assay: PROTAC activity at CRBN/GSPT1 in human U-937 cells assessed as degradation of GSPT1 measured after 6 hrs by Western blot analysis
Assay type: cell-based

Chain of Protein cereblon/Eukaryotic peptide chain release factor GTP-binding subunit ERF3A (Q96SW2 whole entry): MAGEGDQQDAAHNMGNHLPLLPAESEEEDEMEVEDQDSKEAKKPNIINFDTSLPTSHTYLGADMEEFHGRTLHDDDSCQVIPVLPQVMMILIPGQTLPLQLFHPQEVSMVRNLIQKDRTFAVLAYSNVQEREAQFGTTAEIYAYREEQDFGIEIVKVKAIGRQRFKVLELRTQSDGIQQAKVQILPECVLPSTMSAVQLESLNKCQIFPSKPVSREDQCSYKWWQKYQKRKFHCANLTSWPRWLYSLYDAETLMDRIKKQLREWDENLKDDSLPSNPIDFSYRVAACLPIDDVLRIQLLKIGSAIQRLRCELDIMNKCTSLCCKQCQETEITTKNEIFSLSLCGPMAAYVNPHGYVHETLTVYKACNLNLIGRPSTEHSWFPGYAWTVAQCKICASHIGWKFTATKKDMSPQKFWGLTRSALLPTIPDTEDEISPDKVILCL
Chain of Protein cereblon/Eukaryotic peptide chain release factor GTP-binding subunit ERF3A (P15170 whole entry): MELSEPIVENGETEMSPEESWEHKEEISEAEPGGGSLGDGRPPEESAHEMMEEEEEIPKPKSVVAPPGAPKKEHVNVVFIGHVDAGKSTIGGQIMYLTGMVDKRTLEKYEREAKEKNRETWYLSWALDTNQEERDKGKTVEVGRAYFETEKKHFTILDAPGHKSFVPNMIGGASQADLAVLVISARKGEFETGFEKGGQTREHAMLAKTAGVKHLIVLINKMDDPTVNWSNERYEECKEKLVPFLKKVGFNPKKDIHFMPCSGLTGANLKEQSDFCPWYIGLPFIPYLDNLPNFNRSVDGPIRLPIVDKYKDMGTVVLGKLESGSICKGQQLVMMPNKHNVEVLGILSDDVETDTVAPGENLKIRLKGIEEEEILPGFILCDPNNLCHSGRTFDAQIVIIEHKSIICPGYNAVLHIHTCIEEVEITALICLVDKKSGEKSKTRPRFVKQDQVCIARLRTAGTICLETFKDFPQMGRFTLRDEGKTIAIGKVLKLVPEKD

Row | EC50 | Compound
1 | > 10000 nM | Cc1ccc(NC(=O)CNc2ccc3c(c2)C(=O)N(C2CCC(=O)NC2=O)C3)cc1Cl (centres undefined)
2 | 2200 nM | Cc1c(Cl)cc(NC(=O)CCc2ccc3c(c2)C(=O)N(C2CCC(=O)NC2=O)C3)cc1CN1CCN(C)CC1 (centres undefined)
3 | 220 nM | Cc1c(Cl)cc(NC(=O)CCc2ccc3c(c2)C(=O)N(C2CCC(=O)NC2=O)C3)cc1CN1CCN(C2COC2)CC1 (centres undefined)
4 | 48 nM | Cc1c(Cl)cc(NC(=O)CCc2ccc3c(c2)C(=O)N(C2CCC(=O)NC2=O)C3)cc1CN1CCOCC1 (centres undefined)
